Assay results published in a melting point compilation (Tetko et al.; mined from patent text by program, amines drawn as free bases though some values may be those of a salt).

First: Cn1c(=O)sc2nc(-c3ccccc3)cn2c1=O
Second: CCOC(=O)c1cn(C)c2cc(-c3ccccc3)sc2c1=O
The melting point of the first is higher: 228 to 229 °C for the first, 189 to 191 °C for the second.

Compared with `CNC(=O)C1=C(OC(C)C)c2cc(OC)ccc2S1=O` (stereo not given), `COc1ccc(NS(=O)(=O)c2cc(C)cc(C(C)(C)C)c2O)cc1` is higher in melting point: 123 to 124 °C for the first, 130 to 134 °C for the second.

Going from `CN(C)c1ccc(CNC(=O)C(Cc2ccccc2)NC(=O)Nc2ccc(C(=N)N)cc2)cc1` (stereo not given) to `O=C(O)c1ccc(NC(=O)c2ccc(-c3ccccc3)cc2)cc1`, the melting point rises from 147 °C to greater than 320 °C.

Compared with `CCOC(=O)c1cn2c(ccc3c(Cl)cccc32)n1`, `CCOC(=O)c1cn2c3ccc(Br)cc3c3cc(OC)cc(c1=O)c32` is lower in melting point: 193 to 194 °C for the first, 95.6 to 97.6 °C for the second.

First: Cc1cc(C)c2c(c1)SCC2c1ccc(C(C)C)cc1 (stereo not given)
Second: Cc1cc(F)ccc1-c1cc(-c2ccccc2)nc(C(C)C)c1C=O
The melting point of the first is lower: 74 to 75 °C for the first, 110 to 112 °C for the second.

Compared with `COc1cc(S(C)(=O)=O)ccc1-c1nc2cc3c(cc2[nH]1)NC(=O)C3(C)C`, `CCc1c(C(=O)OC)ncc2[nH]c3cc(OC)c(OC)cc3c12` is lower in melting point: 235 to 237 °C for the first, 207 to 209 °C for the second.

First: CCCCNc1cc(Cl)c(S(C)(=O)=O)cc1C(=O)O
Second: CCCCOC(=O)c1cc2cccc(OC)c2[nH]1
The melting point of the first is higher: 187 to 189 °C for the first, 66 to 69 °C for the second.

Going from `CCCCC[C@H]1CC[C@H](c2ccc(-c3ccc(C#N)cc3)cc2)CC1` to `N#Cc1ccc(N(Cc2ccc(Br)cc2)n2cnnc2)cc1`, the melting point rises from 93 °C to 203 °C.

First: COc1cc(C=CCn2cncn2)ccc1OCc1ccccc1
Second: COc1cc(C(=O)c2c(N)sc3c2CCN(C(=O)c2ccccc2)C3)ccc1OC(C)C
The melting point of the first is lower: 70 to 72 °C for the first, 158 to 160 °C for the second.

Compared with `CN1CCN(CCCN(C)C(=O)Cn2c(-c3cccc(Cl)c3)nc3cccnc32)CC1`, `COc1ccc(Cl)c(NC(=O)N(C)c2cc(Nc3ccc(N4CCN(C)CC4)cc3)ncn2)c1Cl` is higher in melting point: 114 to 117 °C for the first, 162 to 163 °C for the second.

Compared with `CNC(=O)C(Cc1ccc(OC)cc1)NC(=O)C(CC(C)C)C(S)CC(=O)OC` (stereo not given), `CCC(=O)NCC(CCO)c1cccc2ccc(OC)cc12` (stereo not given) is higher in melting point: 80 to 86 °C for the first, 123 to 125 °C for the second.

Compared with `Cc1[nH]cnc1CSCCNc1ncc(Cc2ccc(Cl)cc2)c(=O)[nH]1`, `CCOC(=O)C(S)C(=S)Cc1ccc(Cl)cc1` (stereo not given) is lower in melting point: 204 to 206 °C for the first, 36.5 to 37 °C for the second.

First: O=C1Cc2ccc(-c3cnc4[nH]c(=O)n(CC5CCCCC5)c4n3)cc2N1
Second: CCCn1c(N)cc(=O)n(CC2CCCCC2)c1=O
The melting point of the first is higher: 334 to 336 °C for the first, 121 to 122 °C for the second.

First: O=S(=O)(Nc1ccc2c(OCc3ccc(-c4cccc(Cl)c4)cc3)cccc2c1)C(F)(F)F
Second: CS(=O)(=O)c1ccc(-c2oc3ccccc3c(=O)c2-c2cccc(Cl)c2)cc1
The melting point of the first is lower: 170 to 171 °C for the first, 195 to 196 °C for the second.

First: O=C1CCc2c1cccc2[N+](=O)[O-]
Second: O=C1CCNC(=O)C1C(=O)c1ccc(Cl)cc1[N+](=O)[O-] (stereo not given)
The melting point of the first is lower: 94 to 97 °C for the first, 161 to 164 °C for the second.

First: COc1cc(-c2nc(NCC(C)C)c3c(C)c(C#N)sc3n2)cc(OC)c1OC
Second: CCOC(=O)c1c[nH]c2cc(OC)c(OC)cc2c1=O
The melting point of the first is lower: 182 to 184 °C for the first, 275 to 285 °C for the second.

First: CC(C)CC(NC1OC(=O)C2C3C=CC(C3)C12)C(=O)OCc1ccccc1 (stereo not given)
Second: CC(C)c1cc2c(cc1C(CC(=O)O)c1ccccc1)OCO2 (stereo not given)
The melting point of the first is lower: 88 °C for the first, 114 °C for the second.

First: CCOC(=O)c1cc(CC)sc1Nc1ccc([N+](=O)[O-])cc1[N+](=O)[O-]
Second: CCOC(=O)C1=C(C)Nc2ccccc2NC1c1cccc([N+](=O)[O-])c1 (stereo not given)
The melting point of the first is lower: 146 to 148 °C for the first, 148 to 150 °C for the second.

First: c1ccc(-c2c[nH]c3ccccc23)cc1
Second: OC1Cc2cccc(-c3ccccc3)c2C1 (single isomer, unassigned; (+))
The melting point of the first is higher: 148 to 149 °C for the first, 100 to 101 °C for the second.

First: CCCCN(C(=O)CCCCC(=O)N(CCCC)C1CC(C)(C)NC(C)(C)C1)C1CC(C)(C)NC(C)(C)C1
Second: CCCCCCCCOC(=O)/C=C/c1ccccc1C1C(C(=O)OCC)=C(C)NC(C)=C1C(=O)OCC
The melting point of the first is higher: 134 to 144 °C for the first, 110 to 112 °C for the second.

First: COC(=O)c1c(C)cc(-c2ccccc2)nc1-c1cccc([N+](=O)[O-])c1
Second: COC(=O)c1ccccc1-c1ccc(CNc2nc(Cl)nc3ccsc23)cc1
The melting point of the first is lower: 105 to 106 °C for the first, 177 to 182 °C for the second.

First: Cc1ccc(C(=O)NC(NC(=S)Nc2cccnc2)C(C)C)cc1 (stereo not given)
Second: Cc1c(NC(=O)c2ccc(C#CC3(O)CCC3)cc2)ccc2cc(CNCC(C)C)n(C)c12
The melting point of the first is lower: 184 to 186 °C for the first, 222 to 223 °C for the second.

Going from `Nc1c(NC2CCc3ccccc32)[nH]c(=O)[nH]c1=O` (stereo not given) to `CCOC(=O)CC1NCCN(CCc2c[nH]c3ccccc23)C1=O` (stereo not given), the melting point falls from greater than 150 °C to 80 °C.

First: CCC1(CCCCl)C(=O)Nc2ccccc21 (stereo not given)
Second: CC(=O)COc1cc(=O)oc2ccccc12
The melting point of the first is lower: 91 to 93 °C for the first, 163 to 165 °C for the second.

First: CCn1nc(C)c2c1NC(=O)CC2C (stereo not given)
Second: CSc1nnc(C2(C)CC2)c(=O)n1N
The melting point of the first is higher: 141 to 142 °C for the first, 115 to 116 °C for the second.

Compared with `N#Cc1ccc(OCc2ccsc2)cc1OC(C(=O)O)c1ccccc1C(F)(F)F` (racemic), `Cc1oc(-c2ccco2)nc1COc1ccc(COc2ncccc2C#N)cc1` is higher in melting point: 38 to 40 °C for the first, 135 to 136 °C for the second.

First: Oc1cc2c(cc1CCCOc1ccc3ccccc3c1-c1nnn[nH]1)OC(CCc1ccccc1)C2 (stereo not given)
Second: CCCCOC(=O)COc1ccc(C(=O)Nc2cc(F)ccc2Sc2ccccc2-c2nnn[nH]2)cc1
The melting point of the first is lower: 121 to 123 °C for the first, 177 to 179 °C for the second.

First: Nc1cnc(-c2ccc(Br)cc2)c(Cl)n1
Second: Oc1ccc(-c2cc3c(Br)c(O)ccc3o2)cc1
The melting point of the first is higher: 254 to 256 °C for the first, 196 to 198 °C for the second.

First: O=[N+]([O-])c1c(Br)nc2ccc(Cl)cc2c1C(F)(F)F
Second: O=[N+]([O-])c1ccc(Sc2ccc(C(F)(F)F)cc2)c2nonc12
The melting point of the first is lower: 120 °C for the first, 134 to 138 °C for the second.

First: CCS(=O)(=O)NC(=O)c1cccc(N)c1
Second: COc1ccc(N)cc1NC(C)=O
The melting point of the first is higher: 129 to 132 °C for the first, 83 °C for the second.

First: CC(=O)OC1CCC2(CO)C(CCC3C4=CCC(OC(=O)C(C)(C)C)C4(C)CCC32)C1 (stereo not given)
Second: CC(=O)OCC(=O)C1(O)C(C)CC2C3CCC4CC(=O)CCC4(C)C3CCC21C (stereo not given)
The melting point of the first is higher: 133 to 134 °C for the first, 125 °C for the second.

Compared with `CO/C(=C\C=C\c1cc2cc(Cl)c(Cl)cc2[nH]1)C(=O)NC1CC(C)(C)N(C)C(C)(C)C1`, `CNC(=O)[C@@H]1C[C@@H](OC)CN1S(=O)(=O)c1ccc(Cl)c(CBr)c1Cl` is lower in melting point: 212 °C for the first, 64 °C for the second.

First: CC1(C)CC(=O)C(C(=O)Nc2cccc([N+](=O)[O-])c2)C(=O)O1 (stereo not given)
Second: CCN(CC(=O)O)c1ccc(C=O)cc1[N+](=O)[O-]
The melting point of the first is higher: 138 to 140 °C for the first, 90 °C for the second.

Compared with `N#Cc1ccc(N2CCN(Cc3cn4cc(Cl)ccc4n3)CC2)c(F)c1`, `Clc1ccc(-c2cc(CCC3CCCNC3)c3ccccc3n2)cc1` (stereo not given) is higher in melting point: 132 to 133 °C for the first, 155 °C for the second.

Compared with `O=C1c2ccccc2C(=O)N1CCc1ccc(C=Cc2ccccc2)cc1`, `CCN(C(=O)c1ccc(C(=O)c2cnc3ccccn23)cc1)c1ccccc1` is lower in melting point: 212 to 215 °C for the first, 141 to 145 °C for the second.

First: C#CCN(CC#C)S(=O)(=O)c1cccc2c(N(C)C)cccc12
Second: CC(=O)N(CCC1CCCCN1CCC(C(N)=O)c1ccccc1Cl)C(C)C (stereo not given)
The melting point of the first is lower: 67 to 69 °C for the first, 140 to 141 °C for the second.

First: O=C(O)[C@@H]1CSCN1C(=O)CCc1ccccc1
Second: CC(=O)OCc1cc2c3ccccc3nc(=O)n2[nH]1
The melting point of the first is lower: 93 to 95 °C for the first, 186 to 187 °C for the second.

Compared with `O=C1Cc2cc(Cl)ccc2Oc2ccc(F)cc21`, `Cc1cc(-c2cccc(C3=Nc4ccc(-c5ccc(F)cc5)cc4NC(=O)C3)c2)on1` is higher in melting point: 91 to 92 °C for the first, greater than 250 °C for the second.

Compared with `CCCCCOCCCCCCCCCCCCBr`, `Cc1ccc(-c2nc(COc3ccc(CCCCn4ccnc4)cc3)co2)o1` is higher in melting point: 25 °C for the first, 91 to 92 °C for the second.

`CC(C)n1cc(-c2nc(C(N)=O)c(N)nc2-c2ccc(OC(F)(F)F)cc2)ccc1=O` and `NC(=O)Nc1ccc(-c2nnc(CSCCOc3ccccc3)o2)cc1` cannot be ordered by melting point: 264 °C for the first, greater than 220 °C for the second.

Compared with `CN(C)C(=O)C1CC(=O)N(c2cc(C(F)(F)F)cc(C(F)(F)F)c2)C1` (stereo not given), `CC1(C)C(=O)N(c2ccc(C#N)c(C(F)(F)F)c2)C(=S)N1CCCCO` is lower in melting point: 84.5 to 86 °C for the first, 78 to 79 °C for the second.

First: CC1(O)CCC2(C)C(CCC3C2CCC2(C)C(C(=O)COc4ccc([N+](=O)[O-])cc4)CCC32)C1 (stereo not given)
Second: COc1ccc(N2CCOCC2)c2sc(NC(=O)NC3CCCC3)nc12
The melting point of the first is lower: 169 to 172 °C for the first, 191 to 194 °C for the second.

First: NC1CNC(=O)C12CC2 (stereo not given)
Second: CC(=O)CN1CCc2c(c(=O)oc3cc(C)c(Cl)cc23)C1
The melting point of the first is lower: 97 to 99 °C for the first, 172 to 175 °C for the second.

First: CCSc1cc(C)nc(SCC)c1NC(=O)CCCCSc1nc2c(C)c(Cl)cc(C(C)C)c2o1
Second: COC(=O)c1ccc(NC(=O)c2cc(C(C)C)c(C(C)C)o2)cc1O
The melting point of the first is lower: 141 to 142 °C for the first, 156 to 157 °C for the second.

Compared with `O=C(Nc1ncccn1)Nc1ccccc1C(F)(F)F`, `O=S1(=O)CCON=C1c1nc2ccccc2s1` is higher in melting point: 224 to 225 °C for the first, 226 to 227 °C for the second.

First: N#Cc1cc(O)c(O)c(C#N)c1CCC(=O)O
Second: Cc1ccc(Oc2ccc(C3NC(C(=O)O)CS3)cc2C#N)c(O)c1 (stereo not given)
The melting point of the first is higher: 210 to 220 °C for the first, 150 to 152 °C for the second.

Compared with `COc1ccc(C(=O)/C=C/N(C)C)cc1COC(=O)C(C)(C)C`, `CC(C)[C@H](NC(=O)OCc1ccccc1)C(=O)NC(Cc1ccccc1)C(O)C(Cc1ccccc1)NC(=O)[C@@H](NC(=O)OC(C)(C)C)C(C)C` (stereo not given in full) is higher in melting point: 82 to 84 °C for the first, 184 °C for the second.

Compared with `NC(=O)CCC(C(=O)O)N1C(=O)c2cccc(NCc3ccco3)c2C1=O` (stereo not given), `CNC(=O)c1cccc(F)c1Nc1nc(Nc2ccc3c(c2)N(C(C)=O)CC(=O)NC3)ncc1Cl` is higher in melting point: 114 to 116 °C for the first, 179 to 185 °C for the second.

Compared with `CCOCc1cnc(NC(=O)C(Cc2ccc(F)cc2)c2ccc(S(C)(=O)=O)cc2)cn1` (stereo not given), `Cc1cccc(C)c1CS(=O)(=O)NCCc1c(CCCc2ccc(C(=O)O)cc2)c2cc(Cl)ccc2n1C(c1ccccc1)c1ccccc1` is higher in melting point: 99 to 100 °C for the first, 193 °C for the second.

Compared with `O=C(Nc1ccc(C(=O)N2Cc3cccnc3Nc3ccccc32)c(Cl)c1)c1ccccc1-c1ccccc1`, `N#CSCC(I)=C(I)CBr` is lower in melting point: 147 to 165 °C for the first, 84 to 86 °C for the second.
